Experimental data reported in PubChem BioAssay (NCI).
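GI50 is the concentration that inhibits growth by half. TGI denotes the concentration required for complete inhibition of growth.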

How the values were obtained:
Assay in all cases: NCI anticancer screen, dose series, 384-well format
[1] = tested on: HT29 colon
[2] = tested on: RXF 393 renal
[3] = tested on: HOP-62 NSCLC
[4] = tested on: HCT-116 colon
[5] = tested on: HCC-2998 colon
[6] = tested on: NCI-H226 lung
[7] = tested on: M14 melanoma
[8] = tested on: MDA-MB-231 breast
[9] = tested on: COLO 205 colon
[10] = tested on: SK-OV-3 ovarian
[11] = tested on: MCF7 breast
[12] = tested on: NCI-H23 lung
[13] = tested on: T-47D breast
[14] = tested on: NCI-H522 lung
[15] = tested on: HCT-15 colon
[16] = tested on: SW-620 colon
[17] = tested on: SNB-19 CNS
[18] = tested on: K-562 leukemia
[19] = tested on: SN12C renal
[20] = tested on: HL-60(TB) leukemia
[21] = tested on: NCI/ADR-RES ovarian
[22] = tested on: DU-145 prostate
[23] = tested on: NCI-H322M lung
[24] = tested on: SF-295 CNS
[25] = tested on: OVCAR-5 ovarian
[26] = tested on: UACC-257 melanoma
[27] = tested on: PC-3 prostate
[28] = tested on: MDA-MB-468 breast
[29] = tested on: ACHN renal
[30] = tested on: EKVX NSCLC
[31] = tested on: KM12 colon
[32] = tested on: CAKI-1 renal
[33] = tested on: MOLT-4 leukemia
[34] = tested on: CCRF-CEM leukemia
[35] = tested on: LOX IMVI melanoma
[36] = tested on: MALME-3M melanoma
[37] = tested on: A549 NSCLC
[38] = tested on: 786-0 renal
[39] = tested on: BT-549 breast
[40] = tested on: HS 578T breast
[41] = tested on: SK-MEL-28 melanoma
[42] = tested on: TK-10 renal
[43] = tested on: UO-31 renal
[44] = tested on: SNB-75 CNS
[45] = tested on: U251 glioblastoma
[46] = tested on: RPMI-8226 leukemia
[47] = tested on: IGROV1 ovarian
[48] = tested on: HOP-92 NSCLC
[49] = tested on: OVCAR-3 ovarian
[50] = tested on: NCI-H460 NSCLC
[51] = tested on: SF-539 CNS
[52] = tested on: OVCAR-4 ovarian
[53] = tested on: SK-MEL-5 melanoma
[54] = tested on: SR leukemia
[55] = tested on: A498 renal
[56] = tested on: OVCAR-8 ovarian
[57] = tested on: MDA-MB-435 melanoma
[58] = tested on: SF-268 CNS
[59] = tested on: SK-MEL-2 melanoma
[60] = tested on: UACC-62 melanoma

CNC(=O)c1cc(Oc2ccc3nc(N[C@@H]4CCCC[C@H]4O)sc3c2)ccn1
GI50 [1]: > 100 µM
TGI [1]: > 100 µM
GI50 [2]: 25.8 µM
TGI [2]: 83.2 µM
GI50 [3]: 51.1 µM
TGI [3]: > 100 µM
GI50 [4]: 53 µM
TGI [4]: > 100 µM
GI50 [5]: > 100 µM
TGI [5]: > 100 µM
GI50 [6]: 35.2 µM
TGI [6]: > 100 µM
GI50 [7]: > 100 µM
TGI [7]: > 100 µM
GI50 [8]: 60 µM
TGI [8]: > 100 µM
GI50 [9]: > 100 µM
TGI [9]: > 100 µM
GI50 [10]: > 100 µM
TGI [10]: > 100 µM
GI50 [11]: 34.7 µM
TGI [11]: > 100 µM
GI50 [12]: 45.3 µM
TGI [12]: > 100 µM
GI50 [13]: 33.4 µM
TGI [13]: > 100 µM
GI50 [14]: 59 µM
TGI [14]: > 100 µM
GI50 [15]: 34.4 µM
TGI [15]: > 100 µM
GI50 [16]: > 100 µM
TGI [16]: > 100 µM
GI50 [17]: > 100 µM
TGI [17]: > 100 µM
GI50 [18]: 35.1 µM
TGI [18]: > 100 µM
GI50 [19]: > 100 µM
TGI [19]: > 100 µM
GI50 [20]: 22.2 µM
TGI [20]: > 100 µM
GI50 [21]: 24.2 µM
TGI [21]: > 100 µM
GI50 [22]: > 100 µM
TGI [22]: > 100 µM
GI50 [23]: > 100 µM
TGI [23]: > 100 µM
GI50 [24]: 41.7 µM
TGI [24]: > 100 µM
GI50 [25]: > 100 µM
TGI [25]: > 100 µM
GI50 [26]: 48.4 µM
TGI [26]: > 100 µM
GI50 [27]: 71.3 µM
TGI [27]: > 100 µM
GI50 [28]: 12.3 µM
TGI [28]: 45.3 µM
GI50 [29]: > 100 µM
TGI [29]: > 100 µM
GI50 [30]: 58.9 µM
TGI [30]: > 100 µM
GI50 [31]: > 100 µM
TGI [31]: > 100 µM
GI50 [32]: > 100 µM
TGI [32]: > 100 µM
GI50 [33]: 31.7 µM
TGI [33]: > 100 µM
GI50 [34]: 39.3 µM
TGI [34]: > 100 µM
GI50 [35]: 72.2 µM
TGI [35]: > 100 µM
GI50 [36]: 56.2 µM
TGI [36]: > 100 µM
GI50 [37]: > 100 µM
TGI [37]: > 100 µM
GI50 [38]: > 100 µM
TGI [38]: > 100 µM
GI50 [39]: 60.4 µM
TGI [39]: > 100 µM
GI50 [40]: 46.1 µM
TGI [40]: > 100 µM
GI50 [41]: > 100 µM
TGI [41]: > 100 µM
GI50 [42]: 84.8 µM
TGI [42]: > 100 µM
GI50 [43]: > 100 µM
TGI [43]: > 100 µM
GI50 [44]: 68.8 µM
TGI [44]: > 100 µM
GI50 [45]: 73.2 µM
TGI [45]: > 100 µM
GI50 [46]: 18.9 µM
TGI [46]: 69.1 µM
GI50 [47]: > 100 µM
TGI [47]: > 100 µM
GI50 [48]: > 100 µM
TGI [48]: > 100 µM
GI50 [49]: > 100 µM
TGI [49]: > 100 µM
GI50 [50]: 48 µM
TGI [50]: > 100 µM
GI50 [51]: 89.1 µM
TGI [51]: > 100 µM
GI50 [52]: 40.3 µM
TGI [52]: > 100 µM
GI50 [53]: 19.8 µM
TGI [53]: 42.2 µM
GI50 [54]: 10.5 µM
TGI [54]: 23.3 µM
GI50 [55]: > 100 µM
TGI [55]: > 100 µM
GI50 [56]: 59 µM
TGI [56]: > 100 µM
GI50 [57]: > 100 µM
TGI [57]: > 100 µM
GI50 [58]: > 100 µM
TGI [58]: > 100 µM

OCCn1cc(-c2cnc3nnn(Cc4ccc5ncccc5c4)c3n2)cn1
GI50 [59]: > 100 µM
TGI [59]: > 100 µM
GI50 [3]: > 100 µM
TGI [3]: > 100 µM
GI50 [6]: > 100 µM
TGI [6]: > 100 µM
GI50 [7]: > 100 µM
TGI [7]: > 100 µM
GI50 [9]: > 100 µM
TGI [9]: > 100 µM
GI50 [11]: > 100 µM
TGI [11]: > 100 µM
GI50 [12]: > 100 µM
TGI [12]: > 100 µM
GI50 [17]: > 100 µM
TGI [17]: > 100 µM
GI50 [18]: > 100 µM
TGI [18]: > 100 µM
GI50 [19]: > 100 µM
TGI [19]: > 100 µM
GI50 [22]: > 100 µM
TGI [22]: > 100 µM
GI50 [25]: > 100 µM
TGI [25]: > 100 µM
GI50 [28]: > 100 µM
TGI [28]: > 100 µM
GI50 [29]: > 100 µM
TGI [29]: > 100 µM
GI50 [34]: > 100 µM
TGI [34]: > 100 µM
GI50 [38]: > 100 µM
TGI [38]: > 100 µM
GI50 [42]: > 100 µM
TGI [42]: > 100 µM
GI50 [43]: > 100 µM
TGI [43]: > 100 µM
GI50 [60]: > 100 µM
TGI [60]: > 100 µM
GI50 [47]: > 100 µM
TGI [47]: > 100 µM
GI50 [48]: > 100 µM
TGI [48]: > 100 µM
GI50 [52]: > 100 µM
TGI [52]: > 100 µM

COc1cc(OC)c(F)c(COc2cnc(Nc3cnn(CCO)c3)nc2)c1F
GI50 [1]: 0.343 µM
TGI [1]: 1.07 µM
GI50 [5]: 0.751 µM
TGI [5]: > 100 µM
GI50 [6]: 0.26 µM
TGI [6]: 2.29 µM
GI50 [7]: 0.239 µM
TGI [7]: 0.709 µM
GI50 [8]: 0.657 µM
TGI [8]: > 100 µM
GI50 [9]: 0.454 µM
TGI [9]: 3.21 µM
GI50 [11]: 0.408 µM
TGI [11]: > 100 µM
GI50 [12]: 0.494 µM
TGI [12]: 2.24 µM
GI50 [13]: 0.81 µM
TGI [13]: > 100 µM
GI50 [14]: 0.257 µM
TGI [14]: 0.658 µM
GI50 [15]: 0.386 µM
TGI [15]: > 100 µM
GI50 [17]: 0.681 µM
TGI [17]: > 100 µM
GI50 [18]: 0.264 µM
TGI [18]: 1.1 µM
GI50 [19]: 1.18 µM
TGI [19]: 6.33 µM
GI50 [20]: 0.14 µM
TGI [20]: 0.272 µM
GI50 [21]: 0.442 µM
TGI [21]: 1.83 µM
GI50 [22]: 1.6 µM
TGI [22]: > 100 µM
GI50 [23]: 1.79 µM
TGI [23]: > 100 µM
GI50 [26]: 2.12 µM
TGI [26]: > 100 µM
GI50 [27]: 1.25 µM
TGI [27]: > 100 µM
GI50 [28]: 0.234 µM
TGI [28]: 0.514 µM
GI50 [29]: 1.02 µM
TGI [29]: > 100 µM
GI50 [30]: 0.828 µM
TGI [30]: > 100 µM
GI50 [31]: 0.327 µM
TGI [31]: 3.41 µM
GI50 [32]: 0.353 µM
TGI [32]: 1.65 µM
GI50 [33]: 0.187 µM
TGI [33]: 0.356 µM
GI50 [34]: 0.204 µM
TGI [34]: 0.397 µM
GI50 [35]: 0.485 µM
TGI [35]: 3.82 µM
GI50 [37]: 1.27 µM
TGI [37]: > 100 µM
GI50 [38]: 0.425 µM
TGI [38]: > 100 µM
GI50 [40]: 0.226 µM
TGI [40]: 0.672 µM
GI50 [41]: 0.741 µM
TGI [41]: > 100 µM
GI50 [42]: 0.714 µM
TGI [42]: > 100 µM
GI50 [43]: 0.844 µM
TGI [43]: > 100 µM
GI50 [44]: 0.14 µM
TGI [44]: 0.467 µM
GI50 [46]: 0.307 µM
TGI [46]: 1.24 µM
GI50 [47]: 0.536 µM
TGI [47]: > 100 µM
GI50 [48]: 0.747 µM
TGI [48]: 4.74 µM
GI50 [50]: 0.353 µM
TGI [50]: 1 µM
GI50 [51]: 0.34 µM
TGI [51]: 1.5 µM
GI50 [52]: 8.52 µM
TGI [52]: > 100 µM
GI50 [53]: 0.383 µM
TGI [53]: 1.58 µM
GI50 [54]: 0.0411 µM
TGI [54]: 0.165 µM
GI50 [55]: 0.355 µM
TGI [55]: > 100 µM
GI50 [57]: 0.177 µM
TGI [57]: 0.411 µM
GI50 [58]: 0.491 µM
TGI [58]: 3.68 µM
